Assay results: patent US20220142958A1, “MEDICINAL COMPOSITION HAVING EXCELLENT STABILITY” (EA Pharma Co., Ltd., priority 2019, published 2022)

Tests used:
[1] = Example 3: storage stability of formulations at 5° C., 15° C. and 25° C.; assay type: physicochemical
Procedure: Compound A1 weighed so as to have the composition shown in Table 7 below and each of the buffer solutions were dissolved in water for injection to obtain a uniform solution. These solutions were filled in glass ampoules and sealed. Each pH in Example 3 was measured during each storage period using a pH meter HM-30R (manufactured by DKK-TOA CORPORATION).
The residual ratio of Compound A1 and the production of each of the decomposition products at 5° C., 15° C., and 25° C. were evaluated according to a test method described below.
Test method: In the solution after the storage, the residual ratio was analyzed according to a normal method using a liquid chromatography apparatus (ACQUITY UPLC H-Class; measurement wavelength: 210 nm). At this time, XSELECT CSH C18 (2.1 mm×100 mm, 3.5 μm, manufactured by Waters Corporation) was used as a column.
Calculation for obtaining the residual ratio (%) of Compound A1 and each of the decomposition products (%) during each storage period is as follows.
Residual ratio (%) of Compound A1=peak area of Compound A1 in sample solution/sum of peak area of sample solution×100
Each of decomposition products (%)=peak area of each of decomposition products in sample solution/sum of peak area of sample solution×100

serum Ca concentration = test: Serum Ca concentration in bilaterally nephrectomized rats after single intravenous administration; assay type: in vivo, rat
Description: (§1) After quarantine and acclimatization periods of 6 days, fifty-one rats (Crl: CD (SD), male) aged 7 weeks were fed a 100% sucrose diet ad libitum from four days before the surgery. On the day of the surgery, skin incisions were made on the back at the sites of the right and left kidneys under isoflurane anesthesia and the renal capsules were removed to ligate the renal arteries and veins and the ureters using threads before removing the right and left kidneys. A penicillin solution was given upon suturing, and 5 mL of physiological saline was intraperitoneally administered before returning the rats into the breeding cages.
On the day of administering the test substance, for example, a day after the bilaterally nephrectomy, approximately 100 μL of blood was collected from the tail vein without anesthesia using a capillary tube, which was centrifuged in a high speed refrigerated microcentrifuge (10,000 rpm, 5 min, 4° C.) to separate the serum. Thereafter, the serum Ca concentration was measured with a dri-chemanalyzer (model number: FUJI DRI-CHEM 7000, manufacturer: FUJI FILM Medical Co., Ltd.) to select individuals with a serum Ca concentration of 8.0 mg/dL or more and less than 14.0 mg/dL.
(§2) On a day after the bilaterally nephrectomy, the given doses were calculated based on the weight of the selected animals on that day. Group 1 was given a medium (physiological saline), Groups 2, 3 and 4 were given the Compound A1 solution (0.3, 3 and 30 mg/mL, respectively), and Groups 5, 6, 7 and 8 (5 rats per group) were given the comparative compound (0.3, 1, 3 and 10 mg/mL, respectively), each given a single dose of 1 ml/kg from the tail vein. Prior to the administration (0 hours), and 24 and 48 hours after the administration, approximately 300 μL of blood was collected without anesthesia from the tail vein using capillary tubes for obtaining the serum. The blood for obtaining the serum was left to stand at room temperature, and centrifuged in a high speed refrigerated microcentrifuge (10,000 rpm, 5 min, 4° C.) within a period of 30 minutes to 2 hours after the blood collection to collect the serum.
Thereafter, the serum Ca was analyzed with COBAS analyzer (Model number: COBAS INTEGRA 400 plus, manufacturer: Roche Diagnostics K.K.), and the remaining serum was stored in an ultra-low freezer (temperature set to −80±15° C.) until the day of iPTH measurement. On the day of iPTH measurement, the serum was melted at room temperature for measurement.
A 30 mg/ml Compound A1 solution ([…] of Compound A1 dissolved in 10 ml of physiological saline) was diluted with physiological saline to prepare 0.3 mg/ml and […] Compound A1 solutions.
149 mg of etelcalcetide (Ac-c(C) arrrar-NH2) TFA salt (WO 2011/014707 A) was prepared to have pH of 6 to 8 with 7 ml of physiological saline and a 0.5N aqueous NaOH solution, and physiological saline was further added thereto to make 10 ml. The prepared 10 mg/ml comparative compound solution was diluted with physiological saline to obtain 0.3 mg/ml and 1 mg/ml comparative compound solutions.

[2] = system: bilaterally nephrectomized rats; test: Survival of bilaterally nephrectomized rats after single doses; assay type: in vivo, rat; details: 48 hours after the administration, all administered groups (0.3, 3, 30 mg/kg)
Description: as §1, §2

[3] = Example 1A: residual ratio of Compound A1 in buffer solutions stored at 5° C.; assay type: physicochemical; details: for Residual ratio (%): 0.1 mg/mL
Procedure: Compound A1 was dissolved in each of the buffer solutions so that a concentration was 0.1 mg/mL. Each of these solutions was dispensed into a glass vial and stored at 5° C. After the storage, a residual ratio was calculated according to a test method described below.
Test method: In the solution after the storage, the residual ratio was analyzed according to a normal method using a liquid chromatography apparatus Prominence (manufactured by Shimadzu Corporation) and an ultraviolet absorptiometer (measurement wavelength: 254 nm, Prominence (manufactured by Shimadzu Corporation)). At this time, SUMIPAX ODS (3 mm×150 mm, 5 μm, manufactured by SCAS) was used as a column.
The residual ratio (%) of Compound A1 during each storage period at 5° C. was calculated as follows.
Residual ratio (%) of Compound A1 during each storage period=peak area of Compound A1 in sample solution/sum of peak area of sample solution×100

With `Cc1c(Cl)cc(S(=O)(=O)[O-])cc1NC(=O)NC[C@H](N)C(=O)O.[Na+]` [Compound A1, sodium 3-{[(2S)-2-amino-2-carboxyethyl]carbamoylamino}-5-chloro-4-methylbenzenesulfonate] the storage stability ([1]; formulations in the pH range of 6.4 to 6.9, 5° C., for 30 months) was “excellent storage stability”, the storage stability ([1]; formulations in the pH range of 6.4 to 6.9, 15° C., for 12 months) was “excellent storage stability” and the storage stability ([1]; formulations in the pH range of 6.4 to 6.9, 25° C. (60% RH), for 6 months) was “excellent storage stability”. The “mean serum Ca concentration” value (serum Ca concentration; 0.3 mg/kg single i.v., 24 hours after the administration) was 9.07 mg/dL, the “mean serum Ca concentration” value (serum Ca concentration; 0.3 mg/kg single i.v., 48 hours after the administration) was 10.24 mg/dL and the “mean serum Ca concentration” value (serum Ca concentration; 3 mg/kg single i.v., 24 hours after the administration) was 7.97 mg/dL. The “mean serum Ca concentration” value (serum Ca concentration; 3 mg/kg single i.v., 48 hours after the administration) was 8.55 mg/dL, the “mean serum Ca concentration” value (serum Ca concentration; 30 mg/kg single i.v., 24 hours after the administration) was 7.99 mg/dL and the “mean serum Ca concentration” value (serum Ca concentration; 30 mg/kg single i.v., 48 hours after the administration) was 8.14 mg/dL. For the same compound, the “lower limit value of the serum Ca concentration (simulated)” value (serum Ca concentration; logistic curve fitting, 48 hours after the administration vs given dose) was 8.072 mg/dL, the “number of rats surviving (of five per group)” value [2] was “five” and the “Residual ratio (%)” value ([3]; pH 1.1, 5° C., 24 hours) was 100%. The “Residual ratio (%)” value ([3]; pH 1.1, 5° C., 113 hours) was 100%, the “Residual ratio (%)” value ([3]; pH 1.1, 5° C., 161 hours) was 100% and the “Residual ratio (%)” value ([3]; pH 2.0, 5° C., 24 hours) was 100%. For the same compound, the “Residual ratio (%)” value ([3]; pH 2.0, 5° C., 113 hours) was 100%, the “Residual ratio (%)” value ([3]; pH 2.0, 5° C., 161 hours) was 100% and the “Residual ratio (%)” value ([3]; pH 3.0, 5° C., 24 hours) was 100%. For the same compound, the “Residual ratio (%)” value ([3]; pH 3.0, 5° C., 113 hours) was 100%, the “Residual ratio (%)” value ([3]; pH 3.0, 5° C., 161 hours) was 100% and the “Residual ratio (%)” value ([3]; pH 4.0, 5° C., 24 hours) was 100%. For the same compound, the “Residual ratio (%)” value ([3]; pH 4.0, 5° C., 113 hours) was 100%, the “Residual ratio (%)” value ([3]; pH 4.0, 5° C., 161 hours) was 100% and the “Residual ratio (%)” value ([3]; pH 5.0, 5° C., 24 hours) was 100%. The “Residual ratio (%)” value ([3]; pH 5.0, 5° C., 113 hours) was 100%, the “Residual ratio (%)” value ([3]; pH 5.0, 5° C., 161 hours) was 100% and the “Residual ratio (%)” value ([3]; pH 6.0, 5° C., 24 hours) was 100%. For the same compound, the “Residual ratio (%)” value ([3]; pH 6.0, 5° C., 113 hours) was 100%, the “Residual ratio (%)” value ([3]; pH 6.0, 5° C., 161 hours) was 100% and the “Residual ratio (%)” value ([3]; pH 7.0, 5° C., 24 hours) was 100%. The “Residual ratio (%)” value ([3]; pH 7.0, 5° C., 113 hours) was 100%, the “Residual ratio (%)” value ([3]; pH 7.0, 5° C., 161 hours) was 100% and the “stability of the formulation” value ([3]; pH of 1.1 to 7.0, 5° C.) was “stable”.
